Test results reported in PMC11963566, “A phase I, single-center, randomized, open-label, three-period crossover study to evaluate the drug–drug interaction between ZSP1273 and oseltamivir in healthy Chinese subjects” (Antimicrobial Agents and Chemotherapy, 2025).
Read-outs that look alike come from different tables or passages of the source.

How the values were obtained:
[1] = cited from earlier work
clinical = conditions: human
[2] = cited from earlier work; remark: listed apart in the source
[3] = for AUC0-t,ss / AUC0-τ,ss / AUC0-∞,ss / CLss/F / Cmax,ss / Vz/F / t1/2,ss / λz / Ctrough: arithmetic mean ± SD; for Tmax,ss: median (minimum, maximum)
[4] = Safety assessment: adverse events (CTCAE 5.0, MedDRA 23.1) in healthy subjects; type: in vivo, human
Method: Safety assessment was conducted from the first administration of the investigational drug until the end of the trial. Safety indicators included adverse events (AEs), serious adverse events (SAEs), clinical laboratory tests (hematology, biochemistry, and urinalysis), vital signs, physical examination, and 12-lead electrocardiogram.
The severity of AE was assessed according to the CTCAE 5.0 standard and includes grades 1 to 5. Based on the criteria for determining causality between drugs and adverse events, the relationship was classified into five levels: definitely related, probably related, possibly related, probably not related, definitely not related. Among them, definitely related, probably related, and possibly related are defined as drug-related AEs.
Adverse events were coded using Med DRA 23.1 Chinese ([30]) and analyzed based on system organ class (SOC) and preferred term (PT). Adverse events during the treatment period, drug-related adverse events, and serious adverse events were described by frequency, number of cases (n), and incidence rate (%) according to SOC, PT, and the highest severity classification.

influenza A (2009 H1N1) = conditions: compared with oseltamivir or pimodivir; cited from earlier work
[5] = doses up to 1,200 mg; cited from earlier work
influenza A = conditions: adult patients, especially 600 mg once per day; cited from earlier work
[6] = all subjects, no-effect boundary 80%–125%
[7] = SOC Gastrointestinal disorders, probably related
[8] = SOC General disorders and administration site conditions, possibly related
[9] = SOC Infections and infestations, probably not related
[10] = SOC Investigations, possibly related
[11] = SOC Investigations, probably not related
[12] = SOC Skin and subcutaneous tissue disorders, possibly related
[13] = healthy subjects, 5 days dosing
[14] = co-administration ZSP1273 600 mg QD + oseltamivir 75 mg BID, oral, 5 days, plasma, day 5
[15] = co-administration ZSP1273 + oseltamivir, plasma, day 5
[16] = co-administration versus monotherapy analysis
[17] = monotherapy (ZSP1273 600 mg QD or oseltamivir 75 mg BID, oral, 5 days), plasma, day 5
[18] = subjects with AUC_%Extrap >20.0% or Rsq <0.800 excluded

Structure (SMILES): CCC(CC)O[C@@H]1C=C(C(=O)O)C[C@H](N)[C@H]1NC(C)=O [Oseltamivir carboxylate, oseltamivir carboxylate]
- plasma protein binding rate [1]: approximately 3%
- AUC(0-t) (clinical; in vivo, AUC0-t,ss, geometric mean): 5080 ng·h/mL
- AUC (clinical; in vivo, AUC0-τ,ss, geometric mean): 3320 ng·h/mL
- AUC(0-inf) (clinical; in vivo, AUC0-∞,ss, geometric mean): 5170 ng·h/mL
- Cmax (clinical; in vivo, Cmax,ss, geometric mean): 393 ng/mL
- Tmax (clinical; in vivo, po, Tmax,ss): 4 h
- half-life (clinical; in vivo, po, t1/2,ss): 10.3 ± 1.6 h
- k el (clinical; plasma, po, 75 mg): 1.92e-05 s⁻¹
- fraction excreted by the kidneys [2]: more than 99%
- AUC0-∞,ss, geometric mean ratio co-administration/monotherapy [3, 6]: 87.1%
- AUC0-t,ss, geometric mean ratio co-administration/monotherapy ([3]; human, in vivo): 86.7%
- AUC0-τ,ss, geometric mean ratio co-administration/monotherapy ([3]; human, in vivo): 83.3%
- AUC0-∞,ss, intra-individual coefficient of variation ([3]; human, in vivo): 8.4%
- Cmax,ss, geometric mean ratio co-administration/monotherapy ([3]; human, in vivo): 80.4%

Structure (SMILES): O=C(O)[C@H]1C2CCC(CC2)[C@@H]1Nc1nc(-c2n[nH]c3ncc(F)cc23)nc(C2CC2)c1F [ZSP1273]
- Gastrointestinal disorders (SOC): Cases (%) ([4]; AE by system organ class): 5 (13.9) Cases (%)
- Gastrointestinal disorders (SOC): Occurrences ([4]; AE by system organ class): 5
- General disorders and administration site conditions (SOC): Cases (%) ([4]; AE by system organ class): 0 Cases (%)
- General disorders and administration site conditions (SOC): Occurrences ([4]; AE by system organ class): 0
- Infections and infestations (SOC): Cases (%) ([4]; AE by system organ class): 0 Cases (%)
- Infections and infestations (SOC): Occurrences ([4]; AE by system organ class): 0
- Investigations (SOC): Cases (%) ([4]; AE by system organ class): 8 (22.2) Cases (%)
- Investigations (SOC): Occurrences ([4]; AE by system organ class): 18
- Skin and subcutaneous tissue disorders (SOC): Cases (%) ([4]; AE by system organ class): 1 (2.8) Cases (%)
- Skin and subcutaneous tissue disorders (SOC): Occurrences ([4]; AE by system organ class): 1
- Diarrhea: Cases (%) [4, 7]: 5 (13.9) Cases (%)
- Diarrhea: Occurrences [4, 7]: 5
- Fever: Cases (%) [4, 8]: 0 Cases (%)
- Fever: Occurrences [4, 8]: 0
- Upper respiratory tract infection (URTI): Cases (%) [4, 9]: 0 Cases (%)
- Upper respiratory tract infection (URTI): Occurrences [4, 9]: 0
- Decreased blood triglycerides: Cases (%) [4, 10]: 0 Cases (%)
- Decreased blood triglycerides: Occurrences [4, 10]: 0
- Decreased high-density lipoprotein (HDL): Cases (%) [4, 10]: 1 (2.8) Cases (%)
- Decreased high-density lipoprotein (HDL): Occurrences [4, 10]: 1
- Decreased neutrophil count: Cases (%) [4, 10]: 0 Cases (%)
- Decreased neutrophil count: Occurrences [4, 10]: 0
- Increased blood cholesterol: Cases (%) [4, 10]: 2 (5.6) Cases (%)
- Increased blood cholesterol: Occurrences [4, 10]: 2
- Increased blood creatinine: Cases (%) [4, 10]: 3 (8.3) Cases (%)
- Increased blood creatinine: Occurrences [4, 10]: 3
- Increased blood triglycerides: Cases (%) [4, 10]: 4 (11.1) Cases (%)
- Increased blood triglycerides: Occurrences [4, 10]: 4
- Increased blood uric acid: Cases (%) [4, 10]: 2 (5.6) Cases (%)
- Increased blood uric acid: Occurrences [4, 10]: 2
- Increased gamma-glutamyl transferase (GGT): Cases (%) [4, 10]: 1 (2.8) Cases (%)
- Increased gamma-glutamyl transferase (GGT): Occurrences [4, 10]: 1
- Increased lipase: Cases (%) [4, 10]: 1 (2.8) Cases (%)
- Increased lipase: Occurrences [4, 10]: 1
- Increased low-density lipoprotein (LDL): Cases (%) [4, 10]: 2 (5.6) Cases (%)
- Increased low-density lipoprotein (LDL): Occurrences [4, 10]: 2
- Crystals present in urine: Cases (%) [4, 11]: 0 Cases (%)
- Crystals present in urine: Occurrences [4, 11]: 0
- Decreased hemoglobin: Cases (%) [4, 11]: 2 (5.6) Cases (%)
- Decreased hemoglobin: Occurrences [4, 11]: 2
- Increased urine specific gravity: Cases (%) [4, 11]: 0 Cases (%)
- Increased urine specific gravity: Occurrences [4, 11]: 0
- Nitrites present in urine: Cases (%) [4, 11]: 0 Cases (%)
- Nitrites present in urine: Occurrences [4, 11]: 0
- Positive urine occult blood: Cases (%) [4, 11]: 0 Cases (%)
- Positive urine occult blood: Occurrences [4, 11]: 0
- Protein detected in urine: Cases (%) [4, 11]: 0 Cases (%)
- Protein detected in urine: Occurrences [4, 11]: 0
- Acneiform dermatitis: Cases (%) [4, 12]: 0 Cases (%)
- Acneiform dermatitis: Occurrences [4, 12]: 0
- Maculopapular rash: Cases (%) [4, 12]: 1 (2.8) Cases (%)
- Maculopapular rash: Occurrences [4, 12]: 1
- diarrhea, incidence ([4]; drug-related adverse event): 13.9%
- increased blood triglycerides, incidence ([4]; drug-related adverse event): 11.1%
- subjects with drug-related adverse events, incidence ([4]; healthy subjects): 30.6%
- At least one treatment-emergent adverse event (TEAE): Cases (%) [4, 13]: 12 (33.3) Cases (%)
- At least one treatment-emergent adverse event (TEAE): Occurrences [4, 13]: 24
- At least one treatment-emergent adverse event related to drugs: Cases (%) [4, 13]: 11 (30.6) Cases (%)
- At least one treatment-emergent adverse event related to drugs: Occurrences [4, 13]: 22
- pulmonary viral loads and mortality (influenza A (2009 H1N1)): effectively reduced pulmonary viral loads and mortality
- plasma protein binding rate ([1]; in humans, not measured in this study, no reference given): greater than 98.9%
- safety in healthy volunteers [5]: no apparent safety concerns were noticed
- efficacy versus placebo (influenza A): higher efficacy than placebo in ameliorating influenza symptoms and lowering the viral load
- AUC0-∞,ss, intra-individual coefficient of variation ([3]; all subjects): 23.4%
- AUC0-∞,ss, geometric mean ratio co-administration/monotherapy [3, 6]: 91.8%
- AUC0-t,ss [3, 14]: 14,939.0 ± 6,027.0 (40.3%) h*ng/mL
- AUC0-τ,ss [3, 14]: 13,656.5 ± 4,758.0 (34.8%) h*ng/mL
- AUC0-∞,ss [3, 14]: 15,865.8 ± 6,635.4 (41.8%) h*ng/mL
- CLss/F [3, 14]: 48.6 ± 15.3 (31.4%) L/h
- Cmax,ss [3, 14]: 6,270.0 ± 3,369.7 (53.7%) ng/mL
- Vz/F [3, 14]: 923.8 ± 659.5 (71.4%) L
- t1/2,ss [3, 14]: 14.0 ± 10.3 (73.5%) h
- λz [3, 14]: 0.070 ± 0.041 (58.7%) 1 /h
- Tmax,ss [3, 14]: 1.50 (0.25, 4.00) h
- Ctrough ([3]; co-administration ZSP1273 600 mg QD + oseltamivir 75 mg BID, oral, 5 days, plasma): 77.7 ± 49.7 (64.0%) ng/mL
- AUC0-t,ss, geometric mean [3, 15]: 13,926.7 h*ng/mL
- AUC0-τ,ss, geometric mean [3, 15]: 12,964.7 h*ng/mL
- Cmax,ss, geometric mean [3, 15]: 5,466.0 ng/mL
- AUC0-∞,ss, geometric mean ([3]; co-administration ZSP1273 + oseltamivir, plasma, day 5, all subjects): 14,749.3 h*ng/mL
- AUC0-t,ss, intra-individual coefficient of variation [3, 16]: 19.9%
- AUC0-τ,ss, intra-individual coefficient of variation [3, 16]: 18.6%
- Cmax,ss, intra-individual coefficient of variation [3, 16]: 49.2%
- AUC0-∞,ss, geometric mean ([3]; co-administration, subjects with AUC_%Extrap >20.0% or Rsq <0.800 excluded): 14,219.8^b h*ng/mL
- AUC0-t,ss, geometric mean ratio co-administration/monotherapy ([3]; human, in vivo): 92.8%
- AUC0-τ,ss, geometric mean ratio co-administration/monotherapy ([3]; human, in vivo): 96.3%
- Cmax,ss, geometric mean ratio co-administration/monotherapy ([3]; human, in vivo): 99.9%
- AUC0-t,ss [3, 17]: 16,529.6 ± 7,808.2 (47.2%) h*ng/mL
- AUC0-τ,ss [3, 17]: 14,487.1 ± 5,519.8 (38.1%) h*ng/mL
- AUC0-∞,ss [3, 17]: 18,392.1 ± 12,058.8 (65.6%) h*ng/mL
- CLss/F [3, 17]: 47.4 ± 17.8 (37.5%) L/h
- Vz/F [3, 17]: 1,006.5 ± 1,265.7 (125.8%) L
- t1/2,ss [3, 17]: 17.8 ± 33.6 (189.1%) h
- λz [3, 17]: 0.074 ± 0.046 (62.5%) 1 /h
- Tmax,ss [3, 17]: 0.88 (0.25, 4.01) h
- Ctrough ([3]; monotherapy (ZSP1273 600 mg QD or oseltamivir 75 mg BID, oral, 5 days), plasma): 86.3 ± 77.4 (89.6%) ng/mL
- Cmax,ss ([3]; monotherapy (ZSP1273 tablets 600 mg QD or oseltamivir capsules 75 mg BID, oral, 5 days), plasma, day 5): 6,421.7 ± 3,660.6 (57.0%) ng/mL
- AUC0-t,ss, geometric mean ([3]; monotherapy, plasma, day 5): 15,031.4 h*ng/mL
- AUC0-τ,ss, geometric mean ([3]; monotherapy, plasma, day 5): 13,543.4 h*ng/mL
- Cmax,ss, geometric mean ([3]; monotherapy, plasma, day 5): 5,517.1 ng/mL
- AUC0-∞,ss, geometric mean ([3]; monotherapy, plasma, day 5, all subjects): 16,036.9 h*ng/mL
- AUC0-∞,ss, geometric mean ([3]; monotherapy, subjects with AUC_%Extrap >20.0% or Rsq <0.800 excluded): 15,576.5^a h*ng/mL
- AUC0-∞,ss, geometric mean ratio co-administration/monotherapy [3, 18]: 94.5%
- AUC0-∞,ss, intra-individual coefficient of variation [3, 18]: 18.8%
